Reference: US9109041B2, “Analog compounds of analgesic peptides derived from the venom of crotalus durissus terrificus snakes, their uses, compositions, methods of preparation and purification” (priority 2004, dated 2015)

Tests used:
[1] = test system: allodynia induced by constriction of the sciatic nerve; assay: allodynia induced by chronic constriction of the sciatic nerve (von Frey hairs); format: in vivo, rat; settings: saline + antagonist alone i.pl. (ICI 10, nor-BNI 50, CTOP 20 μg/paw); for paw withdrawal threshold (allodynia), FM 1 h: 1 h after treatment; for paw withdrawal threshold (allodynia), FM 3 h: 3 h after treatment; for paw withdrawal threshold (allodynia), BM: before surgery; for paw withdrawal threshold (allodynia), IM: day 14, before treatment
Description: For the induction of neuropathic pain, surgery was performed in the sciatic nerve, in accordance with the method described by Bennett, G. J and Xie, Y. K. (Pain, 33:87-107, 1988). The animals were anesthetized with halothane. The sciatic nerve was exposed in the middle region of the thigh, moving away the femoral biceps muscle. Close to the trifurcation of the sciatic nerve, 7 mm of distance from the trifurcation, 4 loose ligations were performed (chromed catgut 4-0) around it, distant from each other in approximately 1 mm. The bindings were performed along the nerve, up to 4-5 mm from the initial point. The incision was sutured in layers, using silk suture thread number 4-0.
Allodynia was evaluated for quantitative testing, in response to tactile stimulus applied to the paws of the rat, according to the method described by Chaplan el al. (1994), modified. In this test, the rats were placed, individually, in plastic cages, with meshed wire at the bottom, to allow access to the paws of these animals. Briefly, a logarithmic series of 10 calibrated Semmes-Weinstein monofilaments (von Frey hairs, Aesthesiometer Semmer-Weinstein, Stoelting Co., E.U.A) was applied to the right hind paw to determine the stimulus intensity threshold stiffness required to elicit a paw withdrawal response. Log stiffness of the hairs is determined by log 10 (mg×10) having the following values (the value in grams is between parenthesis): 3.61 (0.407 g); 3.84 (0.692 g); 4.08 (1.202 g); 4.17 (1.479 g); 4.31 (2.041 g); 4.56 (3.630 g); 4.74 (5.495 g); 4.93 (8.511 g); 5.07 (11.749 g) and 5.18 (15.136 g). It is important to point out that the filaments with weight greater than 15.136 g were not employed in the studies of allodynia.
The filaments were applied, one by one, perpendicularly, under the plantar area of both hind paws and maintained for a period of 8 seconds. The filament capable of eliciting the withdrawal of the paw, two consecutive times, was considered as the force in grams necessary to elicit the response (100% of response). In the absence of a response to the greater stimulus (15.135 g), this filament was considered as cut value.
The behavioral responses were used to calculate the 50% paw withdrawal threshold (absolute threshold), by fitting a gaussian integral psychometric function, using a maximum-likelihood fitting method. This fitting method allows parametric analyses.
The period of the application of the test and the treatments were the same as those used for determination of hyperalgesia (Table 12).
The results were analyzed by comparing the means of the basal and initial measurements or, when determined, by comparing the means obtained in the different experimental groups.
For this purpose, the animals were treated with CTOP, a specific μ receptor antagonist (20 μg/paw), nor-BNI, a specific κ receptor antagonist (50 μg/paw) or with ICI 174,864, a specific δ receptor antagonist (10 μg/paw). The antagonists were injected, by intraplantar route. The peptide was administered in the dose of 5 μg/kg, orally, immediately before the injection of the opioid antagonists.
The results were analyzed comparing the mean values of the basal and initial measurements, or of the initial and final measurements or, when determined, by comparing the mean values obtained in the different experimental groups (Tables 15 and 16).

[2] = test system: carrageenin-induced hyperalgesia; assay: rat paw pressure test, carrageenin-induced hyperalgesia; format: in vivo; settings: for pain threshold, IM (g) ± S.E.M.: saline + antagonist alone i.pl. (CTOP 20, nor-BNI 50, ICI 174.864 10 μg/paw), before carrageenin; for pain threshold, FM (g) ± S.E.M: saline + antagonist alone i.pl. with carrageenin (CTOP 20, nor-BNI 50, ICI 174.864 10 μg/paw), after carrageenin
Description: The antinociceptive effect of the synthetic peptide was evaluated in the inflammatory hyperalgesia induced by carrageenin. […] Saline, administered by the same route was used as control.
As determined in the PGE2 model, the participation of opioid receptors in the antinociceptive effect of the peptide SEQ ID NO: 2 in the carrageenin-induced hyperalgesia (Table 10) was investigated. Therefore, the animals were treated with CTOP, a specific μ receptor antagonist (20 μg/paw), nor-BNI, a specific κ receptor antagonist (50 μg/paw) or with ICI 174.864, a specific δ receptor antagonist (10 μg/paw), injected by i.pl. route concomitantly to carrageenin. Peptide was administered in the dose of 1 μg/kg, orally, immediately before carrageenin.

[3] = test system: prostaglandin E2-induced hyperalgesia; assay: rat paw pressure test, prostaglandin E2-induced hyperalgesia; settings: for pain threshold, IM (g) ± S.E.M.: saline p.o. + antagonist alone i.pl. (ICI174,864 10 μg/paw; nor-BNI 50 μg/leg; CTOP 20 μg/leg), before PGE2; for pain threshold, FM (g) ± S.E.M: saline p.o. + antagonist alone i.pl. with PGE2 (ICI174,864 10 μg/paw; nor-BNI 50 μg/leg; CTOP 20 μg/leg), 3 h after PGE2

Compound	paw withdrawal threshold (allodynia), FM 1 h [1]	paw withdrawal threshold (allodynia), FM 3 h [1]	paw withdrawal threshold (allodynia), BM [1]	paw withdrawal threshold (allodynia), IM [1]	pain threshold, IM (g) ± S.E.M. [2] [g]	pain threshold, FM (g) ± S.E.M [2] [g]	pain threshold, IM (g) ± S.E.M. [3] [g]	pain threshold, FM (g) ± S.E.M [3] [g]
Oc1ccc2c3c1O[C@H]1c4[nH]c5c(c4C[C@@]4(O)[C@@H](C2)N(CC2CC2)CC[C@]314)C[C@@]1(O)[C@H]2Cc3ccc(O)c4c3[C@@]1(CCN2CC1CC1)[C@H]5O4 [nor-BNI, nor-Binalthorphimine, reference compound]	4.22 ± 0 log 10 (mg × 10)	4.22 ± 0 log 10 (mg × 10)	5.08 ± 0 log 10 (mg × 10)	4.22 ± 0 log 10 (mg × 10)	72 ± 1.12	52 ± 2.79	72 ± 1.44	56 ± 1.25
CTOP [reference compound]	4.22 ± 0 log 10 (mg × 10)	4.22 ± 0 log 10 (mg × 10)	5.08 ± 0 log 10 (mg × 10)	4.22 ± 0 log 10 (mg × 10)	73 ± 1.25	49 ± 1.25	74 ± 2.39	56 ± 2.39
